Experimental data published in patent publication US20260183405A1, “SMALL MOLECULE-DRUG-CONJUGATES CLEAVABLE IN A TUMOR MICROENVIRONMENT” (priority 2022, published 2026).
pIC50: −log10 of the molar value. Like-named read-outs stand apart in the source and are kept apart here.

Key:
human Elastase = target: T1, human Elastase (Homo sapiens, UniProt P08246); experiment: Elastase cleavability test; type: biochemical; conditions: 5 μM test compound, 1 h at 37° C.
T1 sequence (P08246 30-267): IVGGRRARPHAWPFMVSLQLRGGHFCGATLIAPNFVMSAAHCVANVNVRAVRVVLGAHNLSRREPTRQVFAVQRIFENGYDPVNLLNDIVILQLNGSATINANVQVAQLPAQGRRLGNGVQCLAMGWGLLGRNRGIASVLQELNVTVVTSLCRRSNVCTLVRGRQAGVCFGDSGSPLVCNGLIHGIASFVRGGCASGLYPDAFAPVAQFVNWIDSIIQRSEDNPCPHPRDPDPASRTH
Method: The test compound was added to buffer (150 mM NaCl, 10 mM CaCl2, 0.05% BSA) to a final concentration of 5 μM (0.5% DMSO). The reaction was started by adding different concentrations of human Elastase (0, 20, 40, 60 nM) to the reaction vials. After incubation for 1 h at 37° C., the enzymatic reaction was stopped by precipitation in 50% ACN. Subsequently, the samples were subjected to HPLC-MS analysis to determine the concentration of test compound and of its metabolite.

[1] = Pharmacokinetics in rat after intravenous administration; type: in vivo; conditions: plasma, male rats, intravenous bolus 0.5 mg/kg
Method: Male rats (n=3) were given an intravenous 0.5 mg/kg bolus dose of test article dissolved in plasma with 1% DMSO and 2% ethanol. Serial blood samples were collected up to 24 hours post-dose. Plasma was harvested from blood samples and stored frozen until sample analysis. Test article plasma concentrations were analyzed by LC/MS/MS. Pharmacokinetic parameters were calculated using non-compartmental analysis.

[2] = Stability in human plasma; type: in vitro ADME; conditions: 37° C., percent area of the initial compound at t0 (HPLC), read-out: Stability human plasma after 4 h
Method: (§1) 1 mg of the respective test compound of is dissolved in a mixture of 1.5 mL dimethylsulfoxide and 1 ml water. For complete dissolution, the HPLC vial is shaken and treated with an ultrasound. 500 μl of this solution is added to 0.5 mL of plasma with vortexing at a temperature of 37° C. Aliquots (10 μL each) are taken at respective time points and analyzed by HPLC to determine the amount of the test compound. All data is given as percent area of the initial compound at to.

Stability in buffer = type: physicochemical; conditions: HPLC peak area in percentage
Method: 0.15 mg of the test compound are solved in 0.1 ml dimethylsulfoxide and 0.4 ml acetonitrile. For complete dissolution the HPLC vial with the sample solution is shaken and sonicated. Then 1.0 ml of the respective buffer solution is added, and the sample is vortexed. The sample solution is analysed by HPLC to determine the amount of the test compound and up to two byproducts at a particular time over a period of 24 h at 37° C. to values result from a sample immediately taken after vortexing with buffer at RT. The peak areas (in percentage) are used for quantification.

Stability in rat plasma = type: in vitro ADME; conditions: 37° C., percent area of the initial compound at t0 (HPLC), read-out: Stability rat plasma after 4 h
Method: as §1

SUM149PT = experiment: Cytotoxicity in vitro in the presence and absence of elastase (MTT assay); type: cell-based; conditions: SUM149PT cells, 72 h incubation
Method in brief: (§2)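 Elastase dependence was tested by running each compound (10^−5 to 10^−13 M) side by side alone and with 10 nM NE for 72 h at 37 °C. Metabolic activity was assessed by MTT at 570 nm; automated runs report AC50 at −50% activity from a 4-parameter Hill fit with medium-only and DMSO controls as anchors.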

786-O = experiment: as above; type: cell-based; conditions: 786-O cells, 72 h incubation
Method in brief: as §2

HT29 = experiment: as above; type: cell-based; conditions: HT29 cells, 72 h incubation
Method in brief: as §2

NCI-H292 = experiment: as above; type: cell-based; conditions: NCI-H292 cells, 72 h incubation
Method in brief: as §2

[3] = compound alone, read-out: IC50 without neutrophil elastase
[4] = with 10 nM elastase (NE), read-out: IC50 with neutrophil elastase

For `CCCNC(=O)Nc1cccc(S(=O)(=O)Nc2cccc([C@@H](CC(=O)O)NC(=O)Nc3ccc(NC(=O)NCCOCCOCCOCCC(=O)N[C@@H](CC(N)=O)C(=O)N4CCC[C@H]4C(=O)N[C@H](C(=O)NCCCN(C(=O)CO)[C@@H](c4cc(-c5cc(F)ccc5F)cn4Cc4ccccc4)C(C)(C)C)C(C)C)cc3)c2)c1` [Compound 17, sodium N^2-(14-{4-[({(1R)-2-carboxylato-1-[3-({3-[(propylcarbamoyl)amino]benzene-1-sulfonyl}amino)phenyl]ethyl}carbamoyl)amino]anilino}-14-oxo-4,7,10-trioxa-13-azatetradecanan-1-oyl)-L-asparaginyl-L-prolyl-N-{3-[{(1R)-1-[1-benzyl-4-(2,5-difluorophenyl)-1H-pyrrol-2-yl]-2,2-dimethylpropyl}(hydroxyacetyl)amino]propyl}-L-valinamide], the “Payload release after 1 h” value (human Elastase; Elastase Concentration 0 nM) was “D (D = <1%)”, the “Payload release after 1 h” value (human Elastase; Elastase Concentration 20 nM) was “C (C = >1%)” and the AUC [1] was 1000 to 10000 ng·h/mL. For the same compound, the half-life [1] was 5 to 10 h, the clearance ([1]; read-out: CL plasma) was 0.5 to 5 mL/min/kg and the Vd ([1]; read-out: VSS) was 0.3 to 0.9 L/kg. The remaining at 4 h, 0.2 mg/mL [2] was 100%, the remaining at 24 h, 0.1 mg/mL (Stability in buffer; buffer pH 4, 37° C., read-out: Stability buffer pH 4 after 24 h) was 100% and the “Stability buffer pH 7.4 after 24 h” value (Stability in buffer; buffer pH 7.4, 37° C.) was 100%. It also gave a remaining at 4 h, 0.2 mg/mL (Stability in rat plasma) of 100%, a pIC50 (SUM149PT; [3]) of 6.00 to 7.00 and a pIC50 (SUM149PT; [4]) of 9.00 to 10.00. The pIC50 (786-O; [3]) was under 6.00, the pIC50 (786-O; [4]) was 8.00 to 9.00 and the pIC50 (HT29; [3]) was under 6.00. For the same compound, the pIC50 (HT29; [4]) was 8.00 to 9.00, the pIC50 (NCI-H292; [3]) was 6.00 to 7.00 and the pIC50 (NCI-H292; [4]) was 8.00 to 9.00.
